The results in this text go back to PubChem BioAssay AID179 (DTP/NCI, 2004).

The EC50 is the concentration at which the effect is half-maximal. As usually defined, the IC50 is the point on the concentration scale where inhibition reaches its midpoint. A lower IC50 goes with inhibition by little substance.

Values joined by “and” are separate entries in the source; they are usually repeats but may differ in a detail not shown here. Equal entries are not always repeated. Active and inactive are the calls of the source.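 How the source made its calls: active means compounds giving half or more protection of infected cells from virus-caused growth loss, again on retest; inactive means the rest.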 Some results are limits rather than exact numbers.

This test concerns CEM cells HIV-1 protection, formazan growth assay. In words: NCI AIDS Antiviral Assay. To be noted: for IC50: measured here: growth of uninfected CEM cells. The essentials:
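Screen of anti-HIV-1 activity in human CEM cells using a formazan-based growth measurement at five drug concentrations. Hits with 50% or greater protection were repeated, and confirmation required reproducible complete protection.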

For the compound `CCCc1cc(=O)oc2c3c(ccc12)OC(C)(C)[C@H](OC(=O)C12CCC(C)(C(=O)O1)C2(C)C)[C@@H]3OC(=O)C12CCC(C)(C(=O)O1)C2(C)C` (some centres not stated), the concentration giving a half-maximal response (EC50) is 0.891 µM and the half-maximal inhibitory concentration (IC50) is greater than 200 µM.
Consider `CCCCCCCCCCCC(=O)OCCOCCOCCOCc1ccccc1`, for which the result was inactive.
`C=CCc1cc(OC)c2c(c1)C(OC)CC(c1ccc(OC)c(OC)c1)O2` (configuration not stated): the EC50 was greater than 251 µM and the half-maximal inhibitory concentration (IC50) was greater than 251 µM.
Turning to `Cc1n[nH]c(=O)n1Nc1ccccc1`, the EC50 is greater than 200 µM and the 50% inhibitory concentration (IC50) is greater than 200 µM.
In the case of `NC(CCC(=O)NC(CS)C(=O)NCC(=O)O)C(=O)O` (configuration not stated), the EC50 was greater than 288 µM and the IC50 was greater than 288 µM.
In the case of `O=C1Oc2ccccc2C(=O)/C1=C/N1C(=O)N/C(=C\c2cccc(O)c2)C1=O`, the EC50 was greater than 200 µM and the 50% inhibitory concentration (IC50) turned out to be 148 µM.
The matching figures for `COc1ccc2c(c1)C1OCCNC1CC2` (configuration not stated): greater than 200 µM and greater than 200 µM.
The matching figures for `COc1ccc(C2=NNc3n[nH]c(=S)n3N2)cc1OC`: greater than 64.6 µM and greater than 64.6 µM.
The matching figures for `Cc1cc(N(CCC#N)CCC#N)ccc1N=Nc1ccc(Br)cc1`: greater than 6.92 µM and greater than 6.92 µM.
On to `c1ccc(COC2C3COC(O3)C(OCc3ccccc3)C2OCc2ccccc2)cc1` (configuration not stated), for which the EC50 is greater than 200 µM and the IC50 was found to be 15.1 µM.
The matching figures for `CCOC(CN=C=S)OCC`: greater than 200 µM and 27.5 µM.
In the case of `Cn1c2ccc(Cl)cc2c2oc(-c3nn[nH]n3)cc(=O)c21`, the EC50 was greater than 200 µM and the IC50 amounted to 174 µM.
The matching figures for `CCC1(O)CN(CCOC)[C@H]2C[C@@H]1C(=O)c1[nH]c3ccccc3c12` (some centres not stated): greater than 200 µM and greater than 200 µM.
The matching figures for `Cc1ccc(S(=O)(=O)/C(C#N)=C\N2CC(=O)NC2=S)cc1`: greater than 200 µM and greater than 200 µM.
As to `COC(=O)C1=C(CS(=O)c2ccc([N+](=O)[O-])cc2[N+](=O)[O-])C2C=CC1C2` (configuration not stated), the result was inactive.
Turning to `Cc1cc2[nH]c3[nH]c(=O)[nH]c(=O)c3c2cc1C`, the EC50 was greater than 200 µM and the concentration for half-maximal inhibition (IC50) is 170 µM.
On to `O=S(=O)(OI(OI(OS(=O)(=O)C(F)(F)F)c1ccccc1)c1ccccc1)C(F)(F)F`, for which the EC50 was greater than 347 µM and the 50% inhibitory concentration (IC50) worked out at 6.92 µM.
The matching figures for `CC(C)=CCC[C@@H](C)C1=C(O)C(Nc2ccccc2I)=C(C)C(=O)C1=O`: greater than 200 µM and 6.76 µM.
The matching figures for `S=C(N/N=C/c1ccccn1)N1CC2CCC(CC2)C1`: greater than 200 µM and 0.0631 µM.
With `O=C1C/C(Br)=C\c2ccccc2-c2ccccc21`, the EC50 is greater than 1.12 µM and the IC50 worked out at 0.389 µM.
The matching figures for `O=[N+]([O-])c1ccc(Nc2ccccc2)c2nonc12`: greater than 87.1 µM and 41.7 µM.
The matching figures for `CCCc1cc(=O)oc2c3c(c4c(c12)OC(C)(C)[C@@H](O)[C@H]4O)O[C@@H](C)[C@H](C)[C@@H]3O`: greater than 200 µM and 135 µM.
The matching figures for `COc1ccc(/C=C\c2cc(OC)c(OC)c(OC)c2)cc1OC(=O)CCC(=O)O`: greater than 0.2 µM and 0.000562 µM.
Consider `O=c1[nH][nH]c(=O)c2[nH]cnc12`, for which the result was inactive.
As to `O=c1cc2c(=O)oc3cc(O)c(O)oc3c2c(O)c1O`, the EC50 is greater than 324 µM and the IC50 amounted to 13.8 µM.
The matching figures for `COc1ccc(OC)c(NC(=O)Nc2nccs2)c1`: greater than 200 µM and greater than 200 µM.
Compound `CCCCCCNC(=O)Sc1ccccc1C(=O)N[C@H](C)C(N)=O` showed a half-maximal effective concentration (EC50) of 0.141 µM and an IC50 of 107 µM.
In the case of `COc1ccc(CCc2nccn2C)cc1OC`, the EC50 is greater than 200 µM and the IC50 was greater than 200 µM.
Consider `COc1ccc(S(=O)(=O)N(C)CC(=O)O)cc1`, for which the outcome was inactive.
`CCCCN(C)C(=O)C1=C(C)NC(C)=C(C(=O)N(C)CCCC)C1`: the EC50 is greater than 200 µM and the half-maximal inhibitory concentration (IC50) was 102 µM.
The matching figures for `O=C(Nc1ccc(Cl)cc1Cl)C1C(=O)N(c2ccc(Cl)cc2Cl)C(=O)/C1=N\Nc1ccc([N+](=O)[O-])cc1[N+](=O)[O-]` (configuration not stated): greater than 1.66 µM and greater than 1.66 µM.
The matching figures for `CN1CCN(c2ccc3nc(-c4ccc5nc(-c6ccc(O)cc6)[nH]c5c4)[nH]c3c2)CC1`: greater than 501 µM and 3.89 µM.
The matching figures for `CCCCc1c2c(nc3c1CCCC3O)CCCC2` (configuration not stated): greater than 200 µM and 81.3 µM.
In the case of `CC(=O)N1C(=N)SCC1C(N)=O` (configuration not stated), the EC50 was 427 µM and the concentration for half-maximal inhibition (IC50) came to 479 µM.
The matching figures for `CC(C)(c1cccs1)c1cscc1C(=O)O`: greater than 200 µM and greater than 200 µM.
The matching figures for `CC(=O)Nc1cc(N=Nc2ccc(N=Nc3ccc(NC(=O)c4ccc(N)cc4)cc3C)cc2C)c(S(=O)(=O)O)cc1N=Nc1ccc(C(=O)O)cc1`: greater than 123 µM and 115 µM.
The matching figures for `Clc1ccc(C2=CC(c3ccccc3)N3C(=N[C@H]4CCCC[C@@H]43)N2)cc1` (some centres not stated): greater than 100 µM and 4.68 µM.
Consider `COc1ccc2c(c1)c1c3n2CCNN=C3CCC1`, for which the EC50 is greater than 74.1 µM and the 50% inhibitory concentration (IC50) was greater than 74.1 µM.
For `Cc1[nH]c(=O)nc2nc3cc(Cl)cc(Cl)c3c(NC(C)(CO)CO)c12`, the EC50 was greater than 200 µM and the IC50 was greater than 200 µM.
As for `COC(=O)c1[nH]c(=O)c(C#N)c(C(=O)OC)c1C(=O)/C=C/c1ccccc1`, the EC50 is greater than 51.3 µM and the IC50 was greater than 51.3 µM.
Consider `COC(=O)C1=C(C(=O)OC)C(C(=O)OC)C(C(=O)OC)C(C(=O)OC)(C(=O)OC)C(C(=O)OC)=C1C(=O)OC` (configuration not stated), for which the result was inactive.
For `O=C(/N=N/C(=O)Oc1ccccc1)Oc1ccccc1`, the EC50 was greater than 200 µM and the IC50 was 33.1 µM.
For the compound `Cc1cccc(C2=C/C(=C(\SS/C(C(=O)c3ccc(OCC(=O)O)c(Cl)c3Cl)=C3\C=C(c4cccc(C)c4)SS3)C(=O)c3ccc(OCC(=O)O)c(Cl)c3Cl)SS2)c1`, the result was inactive.
Turning to `CCOC(=O)c1cn(C)c2c1C(=O)C(C(=O)OCC)CCN2C(=O)OCC` (configuration not stated), the EC50 was greater than 240 µM and the IC50 was greater than 240 µM.
Consider `CCN1C[C@]2(COC)CCC(OC(=O)c3ccc(OC)cc3)C34[C@@H]5C[C@@H]6C(OC(C)=O)[C@@H]5[C@](OC(C)=O)(C[C@@H]6OC)[C@@H](C(OC)[C@@H]32)[C@H]14` (some centres not stated), for which the outcome was inactive.
As for `COCC(C)(C)N=CN1CCc2ccccc2C1`, the EC50 was greater than 1000 µM and the concentration for half-maximal inhibition (IC50) was greater than 1000 µM.
On to `C1CCC(N=C(NC2CCCCC2)N2CCOCC2)CC1`, for which the EC50 is greater than 200 µM and the half-maximal inhibitory concentration (IC50) was found to be 135 µM.
The matching figures for `COc1ccc(C2SC(=S)N(Cc3ccc(Cl)cc3)N2Cc2ccc(Cl)cc2)cc1` (configuration not stated): greater than 200 µM and 34.7 µM.
The matching figures for `CCc1cccc(CC)c1NC(=O)C1=C(C)NC(C)=C(C(=O)Nc2c(CC)cccc2CC)C1c1ccc2c(c1)OCO2`: greater than 44.7 µM and 23.4 µM.
In the case of `COc1ccc(Cl)cc1C(=O)c1cc(Cl)cc(S(=O)(=O)OC)c1OC`, the EC50 is greater than 24.5 µM and the IC50 is greater than 24.5 µM.
In the case of `Cc1cccc(N(C=O)c2c(O)nc(N)[nH]c2=O)c1`, the EC50 is greater than 200 µM and the IC50 was greater than 200 µM.
Regarding `CC[C@@]1(O)C[C@H](OC2CC(N(C)C)C(OC3CC(O)C(OC4CCC(=O)C(C)O4)C(C)O3)C(C)O2)c2c(cc3c(c2O)C(=O)c2c(O)ccc(O)c2C3=O)[C@H]1C(=O)OC` (some centres not stated), the EC50 is greater than 6.31 µM; the concentration for half-maximal inhibition (IC50) is 0.0055 µM and 0.0158 µM.
Take `Cc1cc(C)c(P2C(=C(O[Si](C(C)C)(C(C)C)C(C)C)C(C)(C)C)C2(c2ccccc2)c2ccccc2)c(C)c1` (configuration not stated): the EC50 was greater than 100 µM and the half-inhibitory concentration (IC50) is greater than 100 µM.
Turning to `N[C@@H]1c2c(I)sc(I)c2C(=O)[C@@H]1O`, the EC50 is greater than 200 µM and the IC50 is 5.25 µM.
The matching figures for `CC1=CC=CC(C)(C)CC1(O[Si](C)(C)C)C(F)(F)F` (configuration not stated): greater than 200 µM and 148 µM.
Regarding `CC(C(=O)O)c1cnn(-c2ccccc2)c1-n1cccc1` (configuration not stated), the outcome was inactive.
As for `COc1ccc(C2Oc3c(cccc3-c3c(-c4ccc(O)cc4)oc4cc(O)cc(O)c4c3=O)C(=O)C2O)cc1O` (configuration not stated), the EC50 is greater than 200 µM and the half-maximal inhibitory concentration (IC50) was 170 µM.
The matching figures for `C/C(=C/CNc1ncnc2c1ncn2CCC(=O)O)CO`: greater than 200 µM and greater than 200 µM.
The matching figures for `COC(=O)/C(=C\C(=O)c1ccc(Br)cc1)NN=C(c1ccccc1)c1ccccc1`: greater than 200 µM and greater than 200 µM.
The matching figures for `CCOC(=O)c1sc2nc(CN3CCOCC3)[nH]c(=O)c2c1C`: greater than 77.6 µM and greater than 77.6 µM.
For `COC(=O)C(Cc1ccccc1)NC(=O)CCCNC(=O)OCc1ccccc1` (configuration not stated), the EC50 was greater than 200 µM and the IC50 was 87.1 µM.
The matching figures for `CC(=O)NC1C(=O)N(c2ccccc2)C1c1ccccc1` (configuration not stated): greater than 178 µM and greater than 178 µM.
Consider `COc1ccc(/C=C2\N=C(c3ccccc3)N(Nc3nnc(NN4C(=O)/C(=C/c5ccc(OC)cc5)N=C4c4ccccc4)c4ccccc34)C2=O)cc1`, for which the result was inactive.
On the same count and under the same terms, the same measure for `Nc1ccccc1S(=O)(=O)N(CC(=O)O)c1ccccc1`: “inactive”; for `Cc1nc2c(ccc3[nH]c4ccccc4c32)s1`: “inactive”.
For the compound `O=c1cc(-c2ccccc2)c2cc3c(=O)ccoc3cc2o1`, the EC50 was greater than 3.47 µM and the IC50 was greater than 3.47 µM.
Take `NNC(=S)N/N=C(/C(=O)Nc1ccc(Cl)c(Cl)c1)C(C1OC(=O)c2ccccc21)[N+](=O)[O-]` (configuration not stated): the EC50 is greater than 501 µM and the IC50 was determined as 257 µM.
Compound `COc1ccc(-c2nc(SC3OC(COC(C)=O)C(OC(C)=O)C(OC(C)=O)C3OC(C)=O)n(C3OC(COC(C)=O)C(OC(C)=O)C(OC(C)=O)C3OC(C)=O)c(=O)c2C#N)cc1` (configuration not stated) registered a half-inhibitory concentration (IC50) greater than 100 µM.
As for `Cc1c(-c2ccccc2)c(=O)oc2ccc(Cl)cc12`, the result was inactive.
As to `CCOc1cccc2cccnc12`, the EC50 was greater than 200 µM and the IC50 is greater than 200 µM.
